Data set [1] in a line: Solid form stability: XRPD re-analysis after drying under vacuum and after storage at 40° C./75% RH. The class given is physicochemical. The conditions noted are these: for XRPD form after drying and storage: after drying at 40° C. under vacuum and storage at 40° C./75% RH; for hygroscopicity properties: overall assessment in words. As to the method:
XRPD analysis was carried out on a PANalytical X'pert pro with PIXcel detector (128 channels), scanning the samples between 3 and 35° 2θ. The material was gently ground to release any agglomerates and loaded onto a multi-well plate with Kapton or Mylar polymer film to support the sample. The multi-well plate was then placed into the diffractometer and analysed using Cu K radiation (α1 λ=1.54060 Å; α2=1.54443 Å; β=1.39225 Å; α1: α2 ratio=0.5) running in transmission mode (step size 0.0130° 2θ, step time 18.87s) using 40 kV/40 mA generator settings. Data were visualized and images generated using the HighScore Plus 4.7 desktop application (PANalytical, 2017).
Solutions were allowed to evaporate at ambient temperature (ca. 20° C.) and pressure. Potential salts were dried at 40° C. under vacuum for ca. 19 h and re-analyzed by XRPD then stored at 40° C./75% RH for ca. 19 h and re-analyzed by XRPD.

The nature of data set [2]: 7 days storage stability of dihydrogenphosphate polymorphs (HPLC purity). The conditions noted are these: for stability (comparison of polymorphs, in words): Pattern 3 compared with Pattern 1 and Pattern 2.
The conditions of data set [3]: counterion acid; cited from earlier work.
The mark [4] stands for this setting: after drying at 40° C. under vacuum.
[5] abbreviates: storage at 40° C./75% RH, ca. 19 h.

Here are results for 20 compounds from patent US12721826B2, “Salt of a pharmaceutical compound” (ACTIMED THERAPEUTICS LTD, priority 2023, dated 2026).

`C=CCOc1ccccc1OC[C@@H](O)CNC(C)C.O=C(O)c1ccc2ccccc2c1O` [xinafoate Pattern 1]: in data set [1], the “XRPD form after drying and storage” value was “xinafoate Pattern 1 was retained”.

With `C=CCOc1ccccc1OC[C@@H](O)CNC(C)C.O=P(O)(O)O` [S-oxprenolol dihydrogenphosphate Pattern 1], the “XRPD form after stress” value in data set [1] (after heating to 40° C., drying at ambient temperature (ca. 20° C.) under vacuum and storage at 40° C./75% RH) is recorded as “dihydrogenphosphate Pattern 1 to remain”. For the same compound, in data set [2], the “stability (comparison of polymorphs, in words)” value (from here on “stability”) was “issues with stability”.

`C=CCOc1ccccc1OC[C@@H](O)CNC(C)C.O=C(O)CNC(=O)c1ccccc1` [hippurate Pattern 1]: the “XRPD form after drying” value in data set [1] (setting [4]) is reported as “hippurate Pattern 1 was retained”. Moreover, the hygroscopicity properties result in data set [1] was “poor”. The “Observation after storage at 40° C./75% RH” value in data set [1] (setting [5]) is “deliquescence was observed to amorphous materials”.

Consider `C=CCOc1ccccc1OC[C@@H](O)CNC(C)C.O=C(O)C(=O)O` [Oxalate Pattern 1 & 2, S-oxprenolol oxalate], for which the “Observation after storage at 40° C./75% RH” value in data set [1] (setting [5]) is “predominantly unchanged”.

`CCS(=O)(=O)O` [Ethanesulfonic acid]: the pKa1 in data set [3] is on record as 2.1.

Turning to `O=C(O)CCCC(=O)O` [Glutaric acid], the pKa1 in data set [3] is 4.34.

In the case of `C=CCOc1ccccc1OC[C@@H](O)CNC(C)C.O=P(O)(O)O` [S-oxprenolol dihydrogenphosphate Pattern 2], the “XRPD form after drying” value is given as “phosphate Pattern 3 was obtained after drying” in data set [1] (dried under vacuum at ambient temperature (ca. 20° C.) for ca. 69 h, precipitated from ethanol/heptane) and “converted to phosphate Pattern 3” in data set [1] (isolated from temperature cycling in 1-butanol, after drying). Moreover, in data set [2], the “stability” value is reported as “issues with stability”.

As for `CC1(C)C2CCC1(CS(=O)(=O)O)C(=O)C2` (stereo not shown) [Camphorsulfonic acid], the pKa1 in data set [3] was 2.2.

Consider `O=C(O)c1cc2ccccc2c(Cc2c(O)c(C(=O)O)cc3ccccc23)c1O` [Pamoic acid], for which, in data set [3], the pKa1 was 2.5 and the pKa2 is 3.1.

With `C=CCOc1ccccc1OC[C@@H](O)CNC(C)C.O=C(O)C(=O)O` [oxalate Pattern 2, S-oxprenolol oxalate], in data set [1] (setting [4]), the “XRPD form after drying” value was “a mixture of Pattern 1 and 2 was obtained”.

As to `O=S(=O)(O)c1ccccc1` [Benzenesulfonic acid], the pKa1 in data set [3] is given as 0.7.

`O=S(=O)(O)c1cccc2c(S(=O)(=O)O)cccc12` [Naphthalene-1,5-disulfonic acid]: in data set [3], the pKa1 is reported as −3.4 and the pKa2 is listed as −2.6.

In the case of `C=CCOc1ccccc1OC[C@@H](O)CNC(C)C.CC(=O)O` [Acetate Pattern 2], the “Observation after storage at 40° C./75% RH” value in data set [1] (material from THF) was “partially deliquesce”; in data set [1] (material from acetone, ethyl acetate and t-BME) it was “deliquesced”. Further, the “XRPD result after storage at 40° C./75% RH” value in data set [1] (material from acetone) is “Pattern 2 peaks remained”; in data set [1] (material from ethyl acetate and t-BME), “Predominantly amorphous material was obtained”.

`C=CCOc1ccccc1OC[C@@H](O)CNC(C)C.O=C(O)C(=O)O` [oxalate Pattern 1, S-oxprenolol oxalate]: the “XRPD form after drying and storage” value in data set [1] is “oxalate Pattern 1 was retained”.

Consider `C=CCOc1ccccc1OC[C@@H](O)CNC(C)C.O=P(O)(O)O` [S-oxprenolol dihydrogenphosphate Pattern 3], for which, in data set [2], the “stability” value is recorded as “improved stability”. Besides, the “HPLC purity following storage” value in data set [2] (after 7 days storage at 40° C./75% RH) and in data set [2] (after 7 days storage at ambient temperature) was above 99.9 % area in each case.

As for `O=C(O)c1ccccc1C(=O)O` [Phthalic acid], in data set [3], the pKa1 is listed as 2.89 and the pKa2 is 5.51.

On to `O=C(O)[C@H](O)[C@@H](O)[C@H](O)[C@H](O)CO` [D-Gluconic acid], for which the pKa1 in data set [3] is 3.8.

For `O=C(O)CNC(=O)c1ccccc1` [Hippuric acid], the pKa1 in data set [3] was 3.6.

For `C=CCOc1ccccc1OC[C@@H](O)CNC(C)C.CC(=O)O` [acetate salt], the hygroscopicity properties result in data set [1] is recorded as “poor”.

Consider `O=S(=O)(O)CCS(=O)(=O)O` [Ethane-1,2-disulfonic acid], for which, in data set [3], the pKa1 is recorded as −2.1 and the pKa2 was −1.5.
